{"source": "patent US20260207535A1", "about": "“CRIBLAGE INHIBITEURS USP8” (COMMISSARIAT A L'ENERGIE ATOMIQUE ET AUX ENERGIES …, priority 2022, published 2026)", "key": {"[1]": {"target": "T1, Full length USP8 (USP8FL) (Homo sapiens, UniProt P40818)", "T1 construct": "purchased BostonBiochem E-520", "T1 sequence (P40818 1-1118)": "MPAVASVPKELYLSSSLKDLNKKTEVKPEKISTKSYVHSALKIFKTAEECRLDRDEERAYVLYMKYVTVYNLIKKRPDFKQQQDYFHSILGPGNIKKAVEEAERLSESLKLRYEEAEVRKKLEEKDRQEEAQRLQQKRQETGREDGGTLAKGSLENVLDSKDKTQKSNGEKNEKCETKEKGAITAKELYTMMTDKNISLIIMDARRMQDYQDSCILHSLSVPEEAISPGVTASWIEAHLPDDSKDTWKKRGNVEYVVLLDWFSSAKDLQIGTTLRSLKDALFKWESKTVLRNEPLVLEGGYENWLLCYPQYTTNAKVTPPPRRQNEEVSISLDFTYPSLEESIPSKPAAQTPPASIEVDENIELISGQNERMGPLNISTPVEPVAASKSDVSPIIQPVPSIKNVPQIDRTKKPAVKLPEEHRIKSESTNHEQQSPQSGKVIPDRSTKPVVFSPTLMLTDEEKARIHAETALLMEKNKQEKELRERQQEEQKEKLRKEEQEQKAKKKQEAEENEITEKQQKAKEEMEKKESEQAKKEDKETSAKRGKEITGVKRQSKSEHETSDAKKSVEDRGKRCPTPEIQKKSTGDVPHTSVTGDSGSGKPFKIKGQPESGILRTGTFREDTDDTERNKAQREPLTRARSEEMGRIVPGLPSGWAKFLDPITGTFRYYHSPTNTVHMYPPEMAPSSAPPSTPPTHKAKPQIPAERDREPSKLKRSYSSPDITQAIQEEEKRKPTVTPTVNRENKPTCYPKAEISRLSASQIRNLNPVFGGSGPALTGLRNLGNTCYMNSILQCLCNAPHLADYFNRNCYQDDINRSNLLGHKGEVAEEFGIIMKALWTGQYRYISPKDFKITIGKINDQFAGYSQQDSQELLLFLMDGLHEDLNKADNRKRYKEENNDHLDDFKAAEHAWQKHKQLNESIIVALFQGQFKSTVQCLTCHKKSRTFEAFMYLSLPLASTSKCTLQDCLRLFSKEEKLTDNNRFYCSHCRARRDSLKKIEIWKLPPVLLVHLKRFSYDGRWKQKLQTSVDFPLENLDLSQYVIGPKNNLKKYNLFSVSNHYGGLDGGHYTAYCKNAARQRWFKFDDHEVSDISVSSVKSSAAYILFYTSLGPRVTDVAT", "assay": "USP8FL (full length USP8) enzymatic inhibition, Ub-Rhodamine 110 hydrolysis in L-cysteine buffer", "format": "biochemical", "protocol": "USP8 FL (USP8 Full Length) was incubated at a concentration of 75 nM in the presence of Ub-Rho (UBIQUIGENT ref. 60-0117-050) at a final concentration of 0.1 μM, in conditions ensuring linearity of enzyme activity throughout the assay in a specific buffer. Compounds were added to the reaction mix at different doses just before the substrate. The enzymatic reaction kinetics were monitored by measuring fluorescence elicited by the hydrolysis of Ub-Rho over 30 min.\nIn this setup, an in-house purified catalytic domain of USP8 (USP8CD) was used at a concentration of 80 nM in the presence of the artificial substrate Ubiquitin-Rhodamine 110 (Ub-Rho) (ref: 60-0117-050 Ubiquigent) at a final concentration of 0.1 μM, in conditions ensuring linearity of enzyme activity throughout the assay incubation time. Enzymatic assay was performed in a Tris HCl buffer (40 mM Tris HCl pH 7.4, Ovalbumine 0.5 mg/ml, Cysteine HCl 5.5 mM). Compounds to be tested were added to the reaction mix and incubated with enzyme for 20 min, before the substrate. The enzymatic reaction kinetics were monitored by measuring fluorescence elicited by the hydrolysis of the peptidyl Ub-Rho over 30 minutes. The negative control was the solvent DMSO at 1%.\nFull length USP8 (USPBFL) (BostonBiochem ref. E-520) were used at a concentration of 75 nM in the presence of a ubiquitin substrate, i.e., the Ub-Rhodamine 110 (Ub-Rho) (Ubiquigent ref. 60-0117-050) at a final concentration of 0.1 μM. Enzymatic assays were performed as described for USP8-CD except that USP-FL was used at a concentration of 75 nM. The compounds were used at a final concentration of 0.1, 1, 5, 10, 50 and 100 μM in DMSO 0.5%. The USP8 catalytic activity was monitored both before adding the substrate (TO) and after twenty minutes of incubation at room temperature (Final Time TF). The enzymatic reaction kinetics were monitored by measuring fluorescence elicited by the hydrolysis of the Ub-Rho bound over 30 minutes."}}}
{"molecule": "Cc1cc(C(C#N)c2ccc(Cl)cc2)c(Cl)cc1NC(=O)c1cc(I)cc(I)c1O", "note": "(stereo not shown) [Closantel, reference compound]", "values": [{"measurement": "dose-dependent viability assay, in words (FIG. 7)", "setting": "AtT-20 cells", "value": "less cytotoxic than niclosamide"}, {"measurement": "AtT-20 cell viability (PrestoBlue assay) % of control (DMSO) at 25 μM Mean (SD)", "setting": "AtT-20 cells; mouse, 24 h, 25 μM", "value": "104.8 (16.08) %"}, {"measurement": "activity against USP8 (CD and FL)", "setting": "[1]; USP8 CD and FL", "value": "active"}, {"measurement": "IC50", "setting": "[1]; USP8 FL 75 nM, Ub-Rho 0.1 μM, L-cysteine buffer, read-out: USP8FL inhbition IC50 [μM] (CI: Confidence Interval)", "value": 12, "unit": "µM"}]}
